Here are results for five molecules from patent US20220110936A1, “PHARMACEUTICAL COMPOSITION FOR TREATMENT OF NEURODEGENERATIVE DISEASES OR DISEASES CAUSED BY ABNORMALITY OF RNA BINDING PROTEIN AND APPLICATIONS THEREOF” (Shanghai Institute of Organic Chemistry, Chinese Academy of …, priority 2019, published 2022).

In one data set the test system is ALS patients. Conditions: cited from earlier work.
The test system of data set [1] is stress granules containing hnRNP A1 protein in HeLa cells. The experiment in a line: Assembly of stress granules containing hnRNP A1 under sodium arsenite (immunofluorescence). Type of data set: cell-based, human. The settings on record: 20 μM, 3 h pretreatment, 100 μM sodium arsenite 0, 10, 30 min, vs DMSO. As for the experimental part: HeLa cells were cultivated in Dulbecco's modified Eagle's medium (DMEM) (sigma) containing 10% fetal bovine serum (FBS) (Biowest). Cells were purchased from American Type Culture Collection (ATCC) and grown at 37° C., 5% carbon dioxide. In the present invention, unless otherwise specified, cell were seeded 12-18 hours in advance in 24-well plates (Corning) containing glass slides (Thermo) at a density of 2×10^5/ml experiments if the cells were used for subsequent immunofluorescence assays, cells were seeded 12-18 hours in advance in 12-well or 6-well plates at a density of 5×10^5/ml if the cells were used for subsequent WB detection assays.
Plasmid transfection: The plasmid pCAG-hnRNP A1-Flag constructed in 1.1.1 was transfected with PolyJet™ reagent (SignaGen) (the amount of transfection plasmid is 0.8 μg/ml, and the ratio of transfection reagent to transfection plasmid is 1:2 (mass volume percentage, for example, […])). Cells were seeded 12-18 hours in advance and transfection was started when the confluence of cell reached about 70%. About 6 hours after transfection, culture medium were changed to ensure growth status of cells. After the exogenous protein was expressed for 24-48 h, the next step of the experiment can be carried out. […]

Data set [2] concerns stress granules containing TDP-43 protein in HeLa cells. As to the kind of experiment: Assembly of stress granules containing TDP-43 under sodium arsenite (immunofluorescence). Type of data set: cell-based, human. Conditions: 20 μM, 3 h pretreatment, vs DMSO. As for the experimental part: Drug treatment: in order to inhibit the level of intracellular PARylation, 20 μM PARP inhibitor Olaparib (Selleck) was added 3 hours before harvesting the plasmid-transfected samples mentioned above, and the control group was treated with an equal volume of DMSO.
In order to induce the production of stress granules, the HeLa cells collected in 1.1.3 were treated with 100 μM sodium arsenite (Sigma) for 0, 10 and 30 minutes, respectively.
Cells harvested after treatment in 1.1.4 above were washed once with PBS, fixed with 4% paraformaldehyde (Sangon Biotech) for 15 min, permeabilized with 0.5% Triton-X100 (Sigma) solution for 10 min, and finally incubated with PBST solution containing 3% goat serum (Sigma) (0.1% Tween 20 (Sigma) in PBS) for 1 h at room temperature and incubated overnight at 4° C. with antibodies (Rabbit anti-TIAR (CST), Mouse anti-Flag (Sigma)). The cells were washed with PBST three times at room temperature and incubated for 1 hour at room temperature. After washing three times with PBST at room temperature, fluorescent secondary antibodies (goat anti-mouse-Alexa Fluor 488 (Thermo), goat anti-rabbit-Alexa Fluor 568 (Thermo)) were added for labeling, and then Vectashield Antifade Mounting Medium with DAPI (Vector Laboratories) was used to seal the slices. The signals were observed and acquired under a 100× oil microscope on a Leica TCS SP8 confocal microscope. […]

Another data set relates to PARP. As to the kind of experiment: Western blot of intracellular PARylation level in HeLa cells. Type of data set: cell-based, human. Conditions: 20 μM, 3 h, vs DMSO. (Immunoblotting shows a protein as a band on a membrane.)
Data set [3] relates to motor neuron-like NSC-34 cells overexpressing hnRNP A1. As to the kind of experiment: Cell viability (CCK-8) of NSC-34 cells overexpressing hnRNP A1. Type of data set: cell-based. As for the experimental part: (§1) 293T cells were cultured in DMEM (sigma) containing 10% FBS (Biowest). NSC-34 cells were cultured with RPMI 1640 medium (Gibco, 11875-093) containing 10% FBS. Cells were grown at 37° C. with 5% carbon dioxide. Cells were both purchased from ATCC.
(§2) Lentiviral packaging plasmids and the corresponding exogenous hnRNP A1 or TDP-43 expression plasmids were transfected simultaneously in 293T cells with PolyJet™ transfection reagent. After 48 hours of transfection, the cell culture was collected by filtration with a 0.45 μm syringe filter (Millipore) and concentrated with Lenti-X™ Concentrator (Clontech), and the concentrated product was used for subsequent infection of NSC-34 cells.
(§3) NSC-34 cells were seeded one day in advance in 96-well plates (Corning) and the corresponding lentivirus was added for transfection. Cell viability was determined 48-72 h after transfection using Cell Counting Kit-8 (CCK-8) (Dojindo) kit. In brief, 10 μL of CCK-8 solution was added to each well. After incubation at 37° C. for 2.5 h, the absorbance light at 450 nm of the solution was detected with a Synergy2 microplate reader (BioTek Instruments) and cell viability values were calculated according to the instructions.
(§4) The siRNA transfection procedure was the same as that in Example 1, and the transfection time was 48-60 h. The corresponding siRNA sequences are as follows.

For data set [4], the system named is motor neuron-like NSC-34 cells overexpressing TDP-43. As to the kind of experiment: Cell viability (CCK-8) of NSC-34 cells overexpressing TDP-43. It is filed as cell-based. The settings on record: 5 μM. As for the experimental part:
as §1, §2, §3, §4

In a further data set the target is T1, hnRNP A1 (Homo sapiens, UniProt P09651).
T1 construct: host or cells: E. coli BL21 (DE3) pLysS
T1 sequence (P09651 1-320 isoform P09651-2): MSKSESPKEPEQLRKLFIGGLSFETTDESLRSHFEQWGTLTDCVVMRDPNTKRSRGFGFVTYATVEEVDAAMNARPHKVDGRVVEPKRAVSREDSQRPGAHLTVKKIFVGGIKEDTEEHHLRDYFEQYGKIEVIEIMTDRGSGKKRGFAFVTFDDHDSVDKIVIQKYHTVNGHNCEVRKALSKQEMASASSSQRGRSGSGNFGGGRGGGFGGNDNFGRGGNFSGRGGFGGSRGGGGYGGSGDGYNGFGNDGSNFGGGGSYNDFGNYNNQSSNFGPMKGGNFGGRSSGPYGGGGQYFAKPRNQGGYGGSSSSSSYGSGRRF
As to the kind of experiment: In vitro liquid-liquid phase separation (LLPS) of hnRNP A1. The settings on record: added under critical conditions. As for the experimental part:
pET9d-hnRNP A1 (Addgene) was used for hnRNP A1 protein expression in E. coli BL21 (DE3) pLysS (TranGeneBiotech). After 0.4 mM IPTG (SangonBiotech) induction at 25° C. for 15 h, the obtained bacteria were collected by centrifugation, and lysed by lysis buffer (50 mM Tris-HCl at pH 7.5, 2 mM DTT, 1 mM PMSF, 5% glycerin, and 0.1 mg/mL RNase A). Supernatant was collected by centrifugating the lysate at a high speed at 4° C. and then transferred to a 5 ml SP column in an AKTA (GE Healthcare) machine. The protein binded on the column was eluted with a mixture (9:1) of buffer A (50 mM Tris-HCl pH 7.5, 2 mM DTT and 5% glycerin) and buffer B (buffer A with 1 M NaCl). The eluted protein was purified by Superdex 75 16/600 column (GE Healthcare). The purified protein was dissolved in stock buffer (50 mM Tris-HCl pH 7.5, 500 mM NaCl and 2 mM DTT) for subsequent experiments.
The purified hnRNP A1 protein was mixed with a certain concentration of PAR (Trevigen) under a certain salt concentration. The reaction system was 50 mM Tris-HCl, pH 7.5, 10% (w/v) […] (Sigma) and 2 mM DTT. After the mixture was incubated at room temperature for 3 minutes, 5 μl was dropped on a glass slide for observation with an SP8 confocal microscope (Leica).

A further data set concerns hnRNP A1 and TDP-43. The experiment in a line: In vitro co-phase separation of hnRNP A1 and TDP-43 fragments. As for the experimental part:
TDP-43^1-274: The expression plasmid pET-28a-TDP-43^1-274-6×His was expressed in BL21 E. coli (DE3) (TranGeneBiotech) after induction by 50 uM IPTG (SangonBiotech) at 19° C. for 16 h. The resulting bacteria were collected by centrifugation, and lysed by lysis buffer (50 mM Tris-HCl, 500 mM NaCl, pH 8.0, 10 mM imidazole, 4 mM β-mercaptoethanol, 1 mM PMSF, and 0.1 mg/mL RNase A). Supernatant was collected by centrifugating the lysate at low temperature and then purified and enriched by Ni column (GE Healthcare). The protein enriched by Ni columns was eluted with eluent (50 mM Tris-HCl, 500 mM NaCl, pH 8.0, 250 mM imidazole and 4 mM β-mercaptoethanol), and then purified with Superdex 200 […] column (GE Healthcare). The purified protein was finally dissolved in a storage buffer (50 mM Tris-HCl pH 7.5, 300 mM NaCl and 2 mM DTT) for subsequent experiments.
TDP-43^274-414: This protein was expressed in BL21 E. coli (DE3) (TranGeneBiotech) by adding 50 uM IPTG (SangonBiotech) at 37° C. for inducing the expression of the protein in inclusion bodies. Collected bacteria were lysed with denaturing lysis buffer (50 mM Tris-HCl, pH 8.0 and 6 M guanidine hydrochloride). The lysis product was centrifuged at high speed for 1 h at 4° C. and the supernatant was collected for purification by Ni column. The proteins were eluted with denaturing elution solution (50 mM Tris-HCl at pH 8.0, 6 M guanidine hydrochloride and 50 mM imidazole) and then further purified by HPLC (Agilent) and the resulting product was lyophilized using a freeze-dryer (Thermo Fisher) and then prepared for use.
The purified TDP-43^1-274 and hnRNP A1 proteins (obtained in Example 6) were diluted separately into desalting reaction solution (50 mM Tris-HCl, pH 7.5, 500 mM NaCl and 4 mM Tris(2-Carboxyethyl) Phosphine (TCEP) (Invitrogen)), and DTT was removed using a desalting column (GE Healthcare). After desalting, TDP-43^1-274 and hnRNP A1 proteins were incubated for 2 h at room temperature with 5 times the volume of AlexaFluor-555 C2-malemide (Invitrogen) or AlexaFluor-647 C2-malemide (Invitrogen), respectively. […]

Method for PARP: Drug treatment: in order to inhibit the level of intracellular PARylation, 20 μM PARP inhibitor Olaparib (Selleck) was added 3 hours before harvesting the plasmid-transfected samples mentioned above, and the control group was treated with an equal volume of DMSO. […]
Immunoblotting assay: the above boiled proteins were separated by 10% Bis-Tris SDS-PAGE (Invitrogen), then transferred to 0.22 μm PVDF membrane (Millipore), sealed with 5% skimmed milk powder, and added with corresponding antibodies (anti-pan-ADP-ribose binding reagent (Millipore), mouse anti-Tubulin (MLB), rabbit anti-PRAG (CST), mouse anti-GAPDH (Proteintech)) for immunoblotting assay. Membranes incubated with primary antibodies were then incubated with the corresponding secondary antibodies coupled with HRP (goat anti-mouse (Sigma), goat anti-rabbit (sigma)), and corresponding protein signals were detected in Amersham Imager 600 (GE Healthcare) using ECL luminescent solution (Tanon).

`CC1=NN(c2ccccc2)C(=O)C1` [Edaravone]: the “physical impairment in ALS patients” value in the data set on ALS patients (phase III clinical trials) was “alleviate some degree of physical impairment”.
As for `O=C(c1cc(Cc2n[nH]c(=O)c3ccccc23)ccc1F)N1CCN(C(=O)C2CC2)CC1` [Olaparib], in data set [1], the “formation of intracellular stress granules and stress granules containing hnRNP A1” value is reported as “delayed”. Further, the “formation of intracellular stress granules and stress granules containing TDP-43” value in data set [2] was “delayed”. The “intracellular level of PARylation (WB)” value in the data set on PARP is “significantly reduce”. The “hnRNP A1-induced neurocytotoxicity” value in data set [3] is “significant inhibitory effect”. Moreover, in data set [4], the “cytotoxicity induced by overexpression of TDP-43” value is recorded as “can reduce the cytotoxicity”.
Turning to `Nc1nc2ccc(OC(F)(F)F)cc2s1` [Riluzole], in the data set on ALS patients (ALS patients), the “prolongation of the patient's life” value was 3-6 months; the side effects result is “nausea, dizziness and even pneumonia”.
Regarding heparin, the “LLPS of hnRNP A1” value on hnRNP A1 is “did not promote”.
As for poly(ADP-ribose) [PAR], the “LLPS of hnRNP A1” value on hnRNP A1 is recorded as “promoted”. The “co-phase separation of hnRNP A1 and TDP-43 1-274” value with hnRNP A1 and TDP-43 is on record as “can promote”. Further, in the data set on hnRNP A1 and TDP-43 (high concentration), the “co-phase separation of hnRNP A1 and TDP-43 274-414” value is “cannot promote”; the “phase separation of hnRNP A1 or TDP-43 1-274 alone” value was “cannot promote”.
